# Read-outs that look alike come from different tables or passages of the source.
# Assays:
# [1] = system: CCD841 CoN cells; experiment: CCK-8 cell viability assay, normal colonic epithelial cells; type: cell-based, human; conditions: 0.5–5 μM, 48 h
# Description: (§1) Cell viability was determined using the CCK-8 assay. Briefly, 5×10³ cells were seeded into 96-well culture plates, allowed to adhere for overnight, and then changed to fresh medium containing various concentrations of SHK (0, 0.5, 1, 2 and 5 µM) dissolved in DMSO (final concentration, 0.1%). After incubation for 48 h, the CCK-8 reagent was added, and the absorbance was measured at 450 nm using an EnSpire® Multimode Plate Reader (Perkin Elmer, USA). The cell viability in the vehicle control groups was defined as 100%. Each assay was carried out in triplicate.
# [2] = system: colorectal cancer cells (LoVo, RKO, SW620, HCT15, HCT116); experiment: CCK-8 cell viability assay, colorectal cancer cells; type: cell-based, human; conditions: 48 h
# Description: as §1
# [3] = molecular target: T1, MBP-IKKβ (701–745) (Homo sapiens, UniProt O14920); experiment: SPR affinity assay on immobilized MBP-IKKβ; type: binding
# T1 construct: made in house; host or cells: E. coli BL21(DE3)
# T1 sequence (O14920 701-745): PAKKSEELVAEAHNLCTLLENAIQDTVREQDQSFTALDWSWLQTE
# Description: The sensor surface was activated with a 7 min injection of a mixture comprising 50 mM N-hydroxysuccinimide (NHS) and 200 mM 1-ethyl-3-(3- dimethylaminopropyl) carbodiimide (EDC). Then, 33 μg/mL of IKKβ was injected to reach the target level of 500 RU and the surface was blocked with 1 M ethanolamine, pH 8.5. A series of concentrations of NEMO or SHK were injected into the flow system and analyzed for 90 or 120 s, followed by dissociation for 90 or 600 s. All binding analyses was performed in phosphate-buffered saline (PBS, pH 7.4) with 0.05% (v/v) Tween-20 at 25 °C. Prior to analysis, double reference subtractions were made to eliminate bulk refractive index changes, injection noise, and data drift. The binding affinity was determined by fitting to a Langmuir 1:1 binding model in the Biacore Evaluation software (GE Healthcare).
# [4] = molecular target: T2, NEMO/IKKβ complex (Homo sapiens, UniProt O14920+Q9Y6K9); experiment: Co-immunoprecipitation of NEMO/IKKβ; conditions: Co-IP
# T2 construct: expressed in transfected cells; host or cells: HEK293T
# Description: The pre-cleared cell lysates were incubated with an anti-HA antibody on a rotating platform at 4 °C for 2 h, and then incubated for another 6 h with protein A/G-sepharose beads. The sepharose beads were washed three times with binding buffer, mixed with gel loading buffer and boiled for 5 min. The samples were centrifuged and the supernatants were used for western blot analysis. A specific antibody against the Flag-tag was applied for the detection of proteins.
# The IKKβ and NEMO expression vectors were constructed by subcloning the full-length cDNA to pENTER-4T1 expression vector (Flag- or HA-tagged) developed by ViGene Biosciences, as described previously.[25] The 293T cells (1 × 10^6) were plated into 60 mm dishes for 1 day, and then transfected with the relevant plasmids encoding HA-IKKβ and Flag-NEMO using Lipofectamine 2000 transfection reagent (Invitrogen). After transfection, the cells were cultured for another 24 h. Subsequently, the transfected cells were trypsinized and seeded into 60 mm dishes, followed by culturing with fresh medium containing the indicated doses of SHK for 48 h, and then collected for the Co-IP assay.
# [5] = system: COX-2, iNOS, IL-6, TNF-α in LoVo and RKO cells; experiment: Expression of inflammatory markers by qPCR and western blotting; type: cell-based, human
# Description: Protein lysates were separated by electrophoresis in a 10% acrylamide sodium dodecyl sulfate-polyacrylamide minigel (SDS-PAGE), electrophoretically transferred to a PVDF membrane, and immunoblotted with specific antibodies. The protein bands were detected by enhanced chemiluminescence. The protein concentrations were determined using a BCA protein assay kit (Beyotime Biotechnology, China). The experiments were carried out at least three times.
# [6] = molecular target: T3, IKKβ (Homo sapiens, UniProt O14920); experiment: IKKβ kinase activity in LoVo cells (spectrophotometric kit); type: cell-based
# T3 construct: endogenous in cells; host or cells: LoVo cells
# Description: Fig. 3 Effect of SHK on NEMO/IKKβ/NF-κB signaling. a The protein levels of NEMO, p-IKKβ/IKKβ, and p-IκBα/IκBα in LoVo cells treated with the indicated doses of SHK were analyzed by western blotting. b The protein levels of NEMO, p-IKKβ/IKKβ, p-IκBα/IκBα protein in tumor tissues were analyzed by western blotting. c LoVo cells were co-transfected with pNFκB-luc containing a Renilla luciferase reporter (as internal control) for 24 h and then treated with SHK for 48 h. Luciferase activity was determined using a dual-luciferase reporter assay system. d The IKKβ kinase activity was assessed using a spectrophotometric quantitative detection kit in LoVo cells. The relative activity was calculated using the provided formula. e The subcellular localizations of p50/p65 in LoVo cells following 48 h of treatment with SHK was examined by confocal microscopy analysis. The protein levels of p65 and p50 in nucleus (f) and whole-cell lysates (g) were measured by western blot analysis. Lamin B1 and β-actin were used as controls for sample loading. h The binding of p65 and p50 to a COX-2 promoter probe was analyzed using a streptavidin-agarose pull-down assay. The data are presented as the means ± SD of at least three separate experiments. (*p < 0.05, **p < 0.01, SHK treatment group vs. vehicle control group)
# T3 sequence (Q9Y6K9 whole entry partner): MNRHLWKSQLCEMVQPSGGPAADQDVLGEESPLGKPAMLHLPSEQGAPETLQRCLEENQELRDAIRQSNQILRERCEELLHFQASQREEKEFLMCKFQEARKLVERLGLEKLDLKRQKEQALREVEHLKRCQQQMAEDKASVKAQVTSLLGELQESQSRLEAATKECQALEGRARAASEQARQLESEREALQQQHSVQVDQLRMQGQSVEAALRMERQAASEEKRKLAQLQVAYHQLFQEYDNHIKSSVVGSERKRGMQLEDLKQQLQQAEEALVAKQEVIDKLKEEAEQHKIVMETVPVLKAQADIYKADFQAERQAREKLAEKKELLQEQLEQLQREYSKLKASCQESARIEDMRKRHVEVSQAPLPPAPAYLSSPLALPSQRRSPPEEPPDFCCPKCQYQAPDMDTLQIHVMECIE
# T3 sequence (O14920 whole entry): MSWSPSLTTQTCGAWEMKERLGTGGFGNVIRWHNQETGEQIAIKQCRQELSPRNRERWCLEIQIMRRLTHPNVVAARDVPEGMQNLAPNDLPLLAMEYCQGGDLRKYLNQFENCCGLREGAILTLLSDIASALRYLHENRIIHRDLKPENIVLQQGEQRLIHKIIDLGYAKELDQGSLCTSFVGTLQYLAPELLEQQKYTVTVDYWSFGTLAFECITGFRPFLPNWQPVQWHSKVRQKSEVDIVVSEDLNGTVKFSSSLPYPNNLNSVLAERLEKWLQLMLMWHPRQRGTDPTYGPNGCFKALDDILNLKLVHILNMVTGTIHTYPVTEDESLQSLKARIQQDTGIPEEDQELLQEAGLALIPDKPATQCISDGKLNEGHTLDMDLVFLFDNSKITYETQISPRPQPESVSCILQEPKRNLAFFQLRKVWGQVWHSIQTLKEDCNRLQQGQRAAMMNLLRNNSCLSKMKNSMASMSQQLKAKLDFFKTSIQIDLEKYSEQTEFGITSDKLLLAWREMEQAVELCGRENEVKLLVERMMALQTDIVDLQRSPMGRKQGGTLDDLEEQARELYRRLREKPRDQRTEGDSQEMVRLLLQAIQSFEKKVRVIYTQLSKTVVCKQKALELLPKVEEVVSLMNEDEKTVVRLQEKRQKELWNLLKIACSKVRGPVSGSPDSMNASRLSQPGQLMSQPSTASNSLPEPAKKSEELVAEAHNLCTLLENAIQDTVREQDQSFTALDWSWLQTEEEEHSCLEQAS
structure (smiles),measurement,setting,value
"CC(C)=CC[C@@H](O)C1=CC(=O)c2c(O)ccc(O)c2C1=O [SHK, Shikonin]",growth inhibitory effect in normal colonic epithelial cells,[1],absent
same,IC50,"[2]; Homo sapiens, CCK-8, range over cell lines, read-out: IC50 for inhibition of proliferation in colorectal cancer cells",0.6 to 2.5 µM
same,growth inhibition of cancer cell lines,"[2]; LoVo, RKO, SW620, HCT15, HCT116",dose-dependent growth inhibition
same,Kd,"[3]; KD for MBP-IKKβ (701–745), SPR",8.19 ± 1.92 µM
same,Kd,"[3]; approximate summary value in discussion (SPR and MST), read-out: KD for either IKKβ or NEMO alone",~10 µM
same,association of full-length HA-IKKβ and Flag-NEMO,[4]; HEK293T cells,greatly reduced
same,ability to destabilize the NEMO/IKKβ complex,[4]; pre-formed complex,effectively reversed their association
same,"expression of inflammatory markers COX-2, iNOS, IL-6, TNF-α",[5],suppressed the expression of inflammatory markers
same,phosphorylation and kinase activity of IKKβ,[6],suppressed the phosphorylation and kinase activity of IKKβ in a dose-dependent manner

# Reference: publication PMC8904520, “Characterization of a small-molecule inhibitor targeting NEMO/IKKβ to suppress colorectal cancer growth” (Signal Transduction and Targeted Therapy, 2022)
